Assay results as given in patent US12600740B2, “Fluorinated N-acetyl glucosamine analogs and xylose derivatives” (UTI Limited Partnership, priority 2018, dated 2026).
Entries after “also recorded” stand apart in the source; their conditions may differ.

Tests used:
splenocytes [1] = assay: Propidium iodide DNA cell cycle flow cytometry of splenocytes; format: cell-based, mouse; conditions: activated splenocytes
Text: Cell-cycle flow cytometry with propidium iodide was used to corroborate the above results, and ensure the reduction in proliferation was not due to cell death. […] To further investigate whether the reduction of proliferation was due to cell death, Annexin V and propidium iodide staining were used to differentiate necrotic cells (propidium iodide+), apoptotic cells (annexin V+), dead cells (propidium iodide+ and annexin V+), and live cells (propidium iodide-annexin V−).
Cell cycle staining with propidium iodide (PI) and analysis by flow cytometry gives percentage of cells in apoptosis, G1, G2, and synthesis, and apoptosis. Following a membrane permeabilization, PI chelates to DNA and level of staining specifies the stage of the cell cycle (e.g., G2 phase will have twice the DNA and thus twice the PI signal as G1 phase, apoptotic cells contain less DNA than healthy cells and are identified by low PI staining). 1×10^6 splenocytes were used per sample, with four replicates per condition. Cells were collected into a tube with PBS and centrifuged (200 r.p.m. for 5 minutes). […] Suspension was transferred to a FACs tube and analyzed. Annexin V/Propidium iodide staining was detected using the Annexin V FITC apoptosis detection kit (BD Biosciences, #556547), which was performed according to manufacturer's instructions.

EAE mice [2] = assay: Flow cytometry of spinal cord and circulating leukocytes in EAE mice; format: in vivo, mouse
Text: To assess the inflammatory profile of circulating leukocytes, we performed flow cytometry using a modified protocol published previously [Bellavance, M. A., Gosselin, D., Yong, V. W., Stys, P. K. & Rivest, S. Patrolling monocytes play a critical role in CX3CR1-mediated neuroprotection during excitotoxicity. Brain Struct Funct 220, 1759-76 (2015)]. Briefly, mice were anaesthetized using ketamine/xylazine, after which blood was drawn via cardiac puncture. Heparin-coated syringes were used to draw approximately 130 μL of blood, which was then subsequently diluted with 70 μL of Hanks' Balanced Salt Solution (HBSS; Gibco) without calcium and magnesium. Fc receptors were then blocked by addition of Mouse BD Fc Block (1:100; BD Pharmingen) for 30 minutes at 4° C. Primary antibodies (1:50) were then added and incubated for 45 minutes at 4° C. The primary antibodies used were CD45-PerCP (BD Pharmingen; Clone 30-F11), CD11b-FITC (BD Pharmingen; Clone M1/70), Ly6G-APC-Cy7 (BD Pharmingen; Clone 1A8), Ly6C-V450 (BD Horizon; Clone AL-21), and CD3-PE (BD Pharmingen; Clone 17A2). Red blood cells were then lysed by rocking samples at room temperature for 12 minutes with 1 mL of BD FACS Lysing Solution (BD Biosciences). Samples were then washed at 1200 rpm for 10 minutes at 4° C., followed by two more washes at 2000 rpm for 3 minutes at 4° C. Prior to acquisition on a flow cytometer (BD LSRII), cells were then fixed in 1% formalin for 10 minutes and then resuspended in HBSS without calcium and magnesium.
For flow cytometry of the spinal cord, spinal cords were dissected following a PBS perfusion. The thoracic and lumber sacral part of isolated spinal cords were separated into neural and leucocyte populations by density gradient centrifugation using isotonic Percoll (GE Healthcare). The leukocytes samples were prepared at 4° C. in fluorescence-activated cell sorting (FACS) buffer solution (BD Biosciences) and Fc receptors were then blocked by addition of Mouse BD Fc Block (1:100; BD Pharmingen) for 30 minutes at 4° C. The cells were stained with antibodies against CD45-PerCP (BD Pharmingen; Clone 30-F11), CD11b-FITC (BD Pharmingen; Clone M1/70) and CD3-APC-Cy7 (BD Pharmingen; Clone 17A2) for 45 minutes and then washed three times with FACS buffer. The cells were fixed in 1% buffered formalin for 10 min and resuspended in the 200 μl of the FACS buffer.
Data acquisition was performed on a flow cytometer (BD FACSAria; BD Biosciences) and analysed with FlowJo software (version 8.6, TreeStar). To ensure proper compensation and gating, unstained samples, appropriate isotype controls, and single-stain controls were included. All data was analyzed using FlowJo software.

EAE mice [3] = assay: Perivascular cuffs per spinal cord and Imaris quantification of CD45+ cells in EAE mice; format: in vivo, mouse
Text: Previously it was shown that CSPGs are accumulated in perivascular cuffs and may have a role in activating immune cells and promoting their migration into the CNS [Stephenson, E. L. et al. Chondroitin sulfate proteoglycans as novel drivers of leucocyte infiltration in multiple sclerosis. Brain: a journal of neurology 141, 1094-1110 (2018)]. For the current study, cervical spinal cord sections from EAE mice treated with Ac-4,4-diF-GlcNAc 16 or vehicle were stained with pan-laminin and CD45. Confocal images were processed by Imaris software to quantify the number of CD45+ cells and their intra-parenchymal distances from perivascular cuffs as previously described [Stephenson, E. L. et al. Chondroitin sulfate proteoglycans as novel drivers of leucocyte infiltration in multiple sclerosis. Brain: a journal of neurology 141, 1094-1110 (2018)] (FIG. 10f).
Perivascular cuffs were identified with pan-laminin staining of two basement membranes with CD45+ cells clustered within the perivascular space. To obtain the average number of perivascular cuffs per spinal cord, perivascular cuffs were counted on 4 cervical spinal cord sections (each >200 μm apart), and then averaged to obtain the average perivascular cuffs per spinal cord per mouse. The Imaris software (Bitplane, Switzerland) was used to quantify the number and distance of CD45+ cells around perivascular cuffs. CD45+ cells were registered as spots and the laminin-positive membranes were registered as surfaces. The Xtension component in Imaris ‘distance transformation’ calculated the distance of every CD45+ cell from the perivascular cuff.

[4] = test system: CSPG production by astrocytes; conditions: previously described (Keough et al. 2016); cited from earlier work
EAE mice [5] = conditions: previously shown (Keough et al. 2016), 50 mgkg−1; cited from earlier work
[6] = test system: mice demyelinated with lysolecithin; conditions: previously described (Keough et al. 2016); cited from earlier work
splenocytes [7] = conditions: shown previously (Grigorian et al. 2011); cited from earlier work
[8] = 25 mg/kg daily day 7 to 15, lumbar/thoracic spinal cord
[9] = 25 mg/kg daily day 7 to 15, spinal cord

Structure (SMILES): CC(=O)NC1C(OC(C)=O)OC(COC(C)=O)C(F)(F)[C@@H]1OC(C)=O (mixture of isomers) [Compound 16, 2-Acetamido-1,3,6-tri-O-acetyl-2,4-dideoxy-4,4-difluoro-α/β-D-xylo-hexopyranose]
- percentage of cells in cell cycle phases (splenocytes [1]): reduced the percentage of cells in the S (DNA synthesis)-phase of the cell cycle
- circulating monocyte, neutrophil and lymphocyte populations (EAE mice [2]; 25 mg/kg daily day 7 to 15, blood at peak EAE): no significant difference; also recorded: did not show changes in monocyte or lymphocyte populations; also recorded: did not affect levels of circulating leukocytes
- CD45+ CD3+ T lymphocytes within the spinal cord (EAE mice [2]; [8]): significantly lowered
- CD45HiCD11b+ infiltrating monocytes/macrophages in spinal cord (EAE mice [2]; [8]): significantly decreased
- median fluorescence intensity of CD11b of CD11b+CD45+ cells (EAE mice [2]; [9]): significantly reduced
- median fluorescence intensity of CD45 in CD11b+CD45+ cells (EAE mice [2]; [9]): decreased
- CD45+ cells by distance from perivascular cuffs, overall versus vehicle (EAE mice [3]; 0 to 100 μm, two-way repeated measures ANOVA): overall significant difference
- average number of perivascular cuffs per spinal cord (EAE mice [3]; 25 mg/kg daily day 7 to 15): significantly reduced average number of perivascular cuffs
- CD45+ cells in the vicinity of perivascular cuffs (within 100 μm) (EAE mice [3]; 25 mg/kg daily day 7 to 15, cervical spinal cord): significantly fewer CD45+ cells in the vicinity of perivascular cuffs
- number of CD45+ cells at 50-100 μm from perivascular cuffs versus vehicle (EAE mice [3]; 50-100 μm): significant difference

Structure (SMILES): CC(=O)NC1C(OC(C)=O)OC(COC(C)=O)[C@@H](F)C1OC(C)=O (some centres unmarked) [Compound 3, reference compound]
- production of CSPGs by astrocytes [4]: reduced production of CSPGs by astrocytes
- EAE clinical disability (EAE mice [5]): attenuated the severity of mice afflicted with EAE; also recorded: reduced the ensuing EAE clinical disability
- remyelination [6]: promoted remyelination following lysolecithin demyelination of the mouse spinal cord

Structure (SMILES): CC(=O)N[C@H]1[C@H](OC(C)=O)O[C@H](COC(C)=O)[C@@H](OC(C)=O)[C@@H]1OC(C)=O [Compound 1, reference compound]
- splenocyte proliferation (splenocytes [7]): reduction in splenocyte proliferation
